Laboratory results taken from ChEMBL document CHEMBL1144086, “Tryptamine derived amides and acetogenins from the seeds of Rollinia mucosa” (J Nat Prod, 1999).
≈ marks a conversion by molar mass, not a printed value.

Legend:
[1] = (§1) Toxicity in Artemia salina; assay type: organism-based; settings: in vivo
[2] = tested on: A549; test: Cytotoxicity against human A549 cells; assay type: functional; settings: read-out: ED50 (the source's name)
[3] = tested on: MCF7; test: Cytotoxicity against human MCF7 cells; assay type: functional; settings: read-out: ED50 (the source's name)
[4] = tested on: HT-29; test: Cytotoxicity against human HT-29 cells; assay type: functional; settings: read-out: ED50 (the source's name)
[5] = Cytotoxicity against human […] cells; assay type: functional; settings: read-out: ED50 (the source's name)
[6] = tested on: PC-3; test: Cytotoxicity against human PC-3 cells; assay type: functional; settings: read-out: ED50 (the source's name)
[7] = tested on: MIA PaCa-2; test: Cytotoxicity against human PaCa2 cells; assay type: functional; settings: read-out: ED50 (the source's name)
[8] = tested on: Artemia salina; test: as §1; assay type: organism-based; settings: in vivo

SMILES | LC50 [1] [µg/mL] | EC50 [2] [µg/mL] | EC50 [3] [µg/mL] | EC50 [4] [µg/mL] | EC50 [5] [µg/mL] | EC50 [6] [µg/mL] | EC50 [7] [µg/mL] | LC50 [8] [×10⁻² ug/ml]
CCCCCCCCCCCCCCCCCCCCCCCCCC(=O)NCCc1c[nH]c2ccccc12 | > 500 | > 10 | > 10 | > 10 | > 10 | > 10 | > 10 | –
CCCCCCCCCC[C@H](O)[C@H]1CC[C@H]([C@H]2CC[C@H]([C@H](O)CCCCCCCCCCCCC3=C[C@H](C)OC3=O)O2)O1 [BULLANIN] | – | 0.47 (≈ 0.774 µM) | 1.35 (≈ 2.22 µM) | 1.69 (≈ 2.78 µM) | < 0.001 | < 0.001 | 1.92 (≈ 3.16 µM) | 1.6
CCCCCCCCCCCCCCCC(=O)NCCc1c[nH]c2ccccc12 | > 500 | > 10 | > 10 | > 10 | > 10 | > 10 | > 10 | –
CCCCCCCCCCCCCCCCCCCCCCCC(=O)NCCc1c[nH]c2ccccc12 | > 500 | > 10 | > 10 | > 10 | > 10 | > 10 | > 10 | –
CCCCCCCCCCCCCCCCCCCCCCC(=O)NCCc1c[nH]c2ccccc12 | > 500 | > 10 | > 10 | > 10 | > 10 | > 10 | > 10 | –
CCCCCCCCCCCCCCCCCCCCCC(=O)NCCc1c[nH]c2ccccc12 | > 500 | > 10 | > 10 | > 10 | > 10 | > 10 | > 10 | –
CCCCCCCCCCCCCCCCCCCC(=O)NCCc1c[nH]c2ccccc12 | > 500 | > 10 | > 10 | > 10 | > 10 | > 10 | > 10 | –
COc1cccc2c1C(=O)c1c(O)c3c(c(O)c1C2=O)C[C@@](O)(C(=O)CO)C[C@@H]3O[C@H]1C[C@H](N)[C@H](O)[C@H](C)O1 [DOXORUBICIN] | – | 0.89 (≈ 1.64 µM) | 3.6 (≈ 6.62 µM) | 3.7 (≈ 6.81 µM) | 0.0083 (≈ 0.0153 µM) | 0.0056 (≈ 0.0103 µM) | 0.0011 (≈ 0.00202 µM) | –
CCCCCCCCCCCCCCCCCCCCCCCCC(=O)NCCc1c[nH]c2ccccc12 | > 500 | > 10 | > 10 | > 10 | > 10 | > 10 | > 10 | –
CCCCCCCCCCCCCCCCCC(=O)NCCc1c[nH]c2ccccc12 | > 500 | > 10 | > 10 | > 10 | > 10 | > 10 | > 10 | –
CCCCCCCCCC[C@H](O)[C@@H]1CC[C@H]([C@H]2CC[C@@H]([C@H](O)CCCCCCCCCCCCC3=C[C@H](C)OC3=O)O2)O1 [MEMBRANACIN] | – | 0.4 (≈ 0.659 µM) | 2.18 (≈ 3.59 µM) | 3.04 (≈ 5.01 µM) | < 0.001 | < 0.001 | 2.1 (≈ 3.46 µM) | 5
